Measured values: patent US20250268876A1, “TREATMENT OF HIDRADENITIS SUPPURATIVA WITH ORISMILAST” (UNION THERAPEUTICS A/S, priority 2021, published 2025)
Values joined by “and” are separate entries in the source; they are usually repeats but may differ in a detail not shown here. Identical values can stand only once. Like-named read-outs stand apart in the source and are kept apart here.

Legend:
[1] = system: IFN-γ; test: Human whole blood cytokine secretion assay (TruCulture); assay type: cell-based; settings: read-out: % inhibition at 20 nM, IFN-γ, mean of 3 experiments
Description: (§1) TruCulture blood collection and incubation tubes were tested with fresh human whole blood with or without addition of 20 nM of the compound of formula (I). The best results were obtained using heparin-stabilised blood and anti-CD3/CD28 test tubes.

[2] = system: IL-8; test: as above; assay type: cell-based; settings: 20 nM
Description: as §1

[3] = system: TNF-α; test: as above; assay type: cell-based; settings: read-out: % inhibition at 20 nM, TNF-α, mean of 3 experiments
Description: as §1

[4] = system: IL-2; test: as above; assay type: cell-based; settings: read-out: % inhibition at 20 nM, IL-2, mean of 3 experiments
Description: as §1

[5] = system: IL-1; test: as above; assay type: cell-based; settings: read-out: % inhibition at 20 nM, IL-1, mean of 3 experiments
Description: as §1

[6] = system: IL-13; test: as above; assay type: cell-based; settings: 20 nM
Description: as §1

[7] = system: IL-4; test: as above; assay type: cell-based; settings: read-out: % inhibition at 20 nM, IL-4, mean of 3 experiments
Description: as §1

[8] = system: TNF-α secretion from human whole blood; test: Whole blood TNF-α secretion assay (LPS or SEB); assay type: cell-based; settings: for times more potent than Roflumilast / times more potent than apremilast: mean EC50 values; for Emax / EC50: Homo sapiens; for Emax: read-out: Emax
[9] = target: PDE4C2 (Homo sapiens, UniProt Q08493); test: IMAP fluorescence polarisation PDE4 subtype assay; assay type: biochemical
[10] = target: PDE4A4 (Homo sapiens, UniProt P27815); test: IMAP fluorescence polarisation PDE4 subtype assay; assay type: biochemical
Description: The binding reagent complexes with phosphate groups on nucleotide monophosphate generated from cyclic nucleotides (cAMP/cGMP) through phosphodiesterases. With fluorescence polarisation detection, binding causes a change in the rate of the molecular motion of the phosphate bearing molecule, and results in an increase in the fluorescence polarization value observed for the fluorescent label attached to the substrate. […] All assays were performed in 3% (final) DMSO for the IMAP assay.

PDE4A4, sequence (P27815 whole entry): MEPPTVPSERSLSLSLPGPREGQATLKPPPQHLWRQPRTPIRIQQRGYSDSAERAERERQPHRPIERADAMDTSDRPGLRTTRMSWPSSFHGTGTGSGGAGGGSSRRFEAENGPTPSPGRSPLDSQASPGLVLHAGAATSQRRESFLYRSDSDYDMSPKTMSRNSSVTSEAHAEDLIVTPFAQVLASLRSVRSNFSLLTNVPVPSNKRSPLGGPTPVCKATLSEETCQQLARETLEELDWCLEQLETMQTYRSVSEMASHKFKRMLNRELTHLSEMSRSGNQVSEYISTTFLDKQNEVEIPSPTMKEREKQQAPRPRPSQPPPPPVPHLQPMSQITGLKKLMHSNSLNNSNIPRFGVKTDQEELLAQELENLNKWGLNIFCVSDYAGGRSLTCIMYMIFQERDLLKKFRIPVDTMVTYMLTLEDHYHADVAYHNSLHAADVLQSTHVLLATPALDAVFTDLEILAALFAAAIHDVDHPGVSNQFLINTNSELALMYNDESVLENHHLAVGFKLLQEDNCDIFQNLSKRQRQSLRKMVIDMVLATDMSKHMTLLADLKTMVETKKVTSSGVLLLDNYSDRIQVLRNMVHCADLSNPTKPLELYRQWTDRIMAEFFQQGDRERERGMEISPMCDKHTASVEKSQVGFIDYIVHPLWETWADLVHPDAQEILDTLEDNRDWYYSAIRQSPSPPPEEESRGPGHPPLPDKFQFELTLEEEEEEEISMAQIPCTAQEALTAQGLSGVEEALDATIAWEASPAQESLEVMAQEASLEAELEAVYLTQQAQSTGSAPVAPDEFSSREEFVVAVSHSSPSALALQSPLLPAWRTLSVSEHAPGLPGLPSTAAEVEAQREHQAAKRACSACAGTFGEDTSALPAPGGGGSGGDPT
PDE4C2, sequence (Q08493 107-712): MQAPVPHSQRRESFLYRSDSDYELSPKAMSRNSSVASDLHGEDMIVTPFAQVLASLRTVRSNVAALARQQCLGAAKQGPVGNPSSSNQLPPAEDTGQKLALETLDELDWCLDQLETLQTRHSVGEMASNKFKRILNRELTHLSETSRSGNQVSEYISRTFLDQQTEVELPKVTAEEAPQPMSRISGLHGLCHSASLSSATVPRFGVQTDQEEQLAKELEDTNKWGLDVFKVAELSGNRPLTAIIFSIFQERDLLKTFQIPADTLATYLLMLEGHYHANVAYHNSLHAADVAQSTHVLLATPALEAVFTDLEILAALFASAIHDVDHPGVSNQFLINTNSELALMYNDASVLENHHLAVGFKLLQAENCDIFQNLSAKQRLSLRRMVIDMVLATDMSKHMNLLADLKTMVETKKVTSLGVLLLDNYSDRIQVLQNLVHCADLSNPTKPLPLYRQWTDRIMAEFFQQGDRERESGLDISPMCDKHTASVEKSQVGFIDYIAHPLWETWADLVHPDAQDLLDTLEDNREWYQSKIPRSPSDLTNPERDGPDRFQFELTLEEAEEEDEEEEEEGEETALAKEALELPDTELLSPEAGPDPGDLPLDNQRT

O=C(Cc1c(Cl)c[n+]([O-])cc1Cl)c1ccc(OC(F)F)c2c1OC1(CCS(=O)(=O)CC1)O2 [Compound (I), 2-(3,5-Dichloro-1-oxido-pyridine-4-yl)-1-(7-difluoro-methoxy-2′,3′,5′,6′-tetrahydro-spiro[1,3-benzodioxole-2,4′-(4H)-thiopyran-1′,1′-dioxide]-4-yl)ethanone]
inhibition at 0.02 µM [1]: 54% | Inhibition of IL-8 secretion (in words) [2]: not clearly inhibited | inhibition at 0.02 µM [3]: 60% | inhibition at 0.02 µM [4]: 50% | inhibition at 0.02 µM [5]: 40% | Inhibition of IL-13 secretion (in words) [6]: not clearly inhibited | inhibition at 0.02 µM [7]: 44% | times more potent than Roflumilast ([8]; (M)): 1.7 times | times more potent than Roflumilast ([8]; (ng/mL)): 1.4 times | Emax ([8]; 24 h, LPS 1 μg/mL, 24 hours, donor 1, Emax defined as TNF-α level in un-stimulated wells): 76% | EC50 ([8]; 24 h, LPS 1 μg/mL, 24 hours, donor 1, read-out: EC50): 5.34 nM | EC50 ([8]; 24 h, LPS 1 μg/mL, 24 hours, donor 2, read-out: EC50): 18.4 nM | Emax ([8]; 24 h, LPS 1 μg/mL, 24 hours, donor 2): 79% | EC50 ([8]; 24 h, SEB 1 μg/mL, 24 hours, donor 1, read-out: EC50): 4.93 nM | Emax ([8]; 24 h, SEB 1 μg/mL, 24 hours, donor 1): 97% | EC50 ([8]; 24 h, SEB 1 μg/mL, 24 hours, donor 2, read-out: EC50): 24.9 nM | Emax ([8]; 24 h, SEB 1 μg/mL, 24 hours, donor 2): 66% | EC50 ([8]; 48 h, LPS 1 μg/mL, 48 hours, donor 1, read-out: EC50): 12.1 nM | Emax ([8]; 48 h, LPS 1 μg/mL, 48 hours, donor 1): 71% | EC50 ([8]; 48 h, LPS 1 μg/mL, 48 hours, donor 2, read-out: EC50): 19.8 nM | Emax ([8]; 48 h, LPS 1 μg/mL, 48 hours, donor 2): 80% | EC50 ([8]; 48 h, SEB 1 μg/mL, 48 hours, donor 1, read-out: EC50): 4.66 nM | Emax ([8]; 48 h, SEB 1 μg/mL, 48 hours, donor 1): 98% | EC50 ([8]; 48 h, SEB 1 μg/mL, 48 hours, donor 2, read-out: EC50): 47.8 nM | Emax ([8]; 48 h, SEB 1 μg/mL, 48 hours, donor 2): 83% | EC50 ([8]; mean of 8 determinations (LPS and SEB, 24 and 48 hours, 2 donors), read-out: Geometric mean of EC50 values across different assay parameters): 12.6 nM and 0.00643 µg/mL | Potency compared with roflumilast-N-oxide (in words) ([8]; LPS and SEB-induced TNF-α secretion): equipotent to—or slightly more potent than | times more potent than apremilast ([8]; based on molar concentrations): 23 times | times more potent than apremilast ([8]; based on ng/mL concentrations): 21 times | Inhibition (%) ([9]; compound 10^−7 M (100 nM)): not significantly inhibited | inhibition at 0.0001 µM ([9]; compound 10^−10 M): 9% | inhibition at 0.1 µM ([10]; compound 10^−7 M): 47% | inhibition at 0.01 µM ([10]; compound 10^−8 M): 24% | inhibition at 0.001 µM ([10]; compound 10^−9 M): 0% | inhibition at 0.0001 µM ([10]; compound 10^−10 M): 0%
